Assays:
Type in all cases: in vivo
[1] = tested on: Amaranthus retoflexus (AMARE); assay: Pre-emergence biological efficacy, glasshouse pot test; settings: Amaranthus retroflexus, 312 h; pre-emergence, rate 1,000 g/ha, evaluated after 13 days (100=total damage to plant; 0=no damage); read-out: Percentage damage caused to weed species, AMARE
Summary of the method: (§1)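 Visual phytotoxicity (0 no damage, 100 total damage) assessed 13 d after treatment. Soil-sown pots sprayed one day post-sowing; dose 1000 or 250 g/ha; formulation in acetone/water 50:50, 0.5% Tween 20.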

[2] = tested on: Solanum nigrum (SOLNI); assay: as above; settings: 312 h, pre-emergence, rate 1,000 g/ha, evaluated after 13 days (100=total damage to plant; 0=no damage), read-out: Percentage damage caused to weed species, SOLNI
Summary of the method: as §1

[3] = tested on: Alopecurus myosuroides (ALOMY); assay: as above; settings: 312 h, pre-emergence, rate 1,000 g/ha, evaluated after 13 days (100=total damage to plant; 0=no damage), read-out: Percentage damage caused to weed species, ALOMY
Summary of the method: as §1

[4] = tested on: Setaria faberi (SETFA); assay: as above; settings: 312 h, pre-emergence, rate 1,000 g/ha, evaluated after 13 days (100=total damage to plant; 0=no damage), read-out: Percentage damage caused to weed species, SETFA
Summary of the method: as §1

[5] = tested on: Echinochloa crus-galli (ECHCG); assay: as above; settings: 312 h, pre-emergence, rate 1,000 g/ha, evaluated after 13 days (100=total damage to plant; 0=no damage), read-out: Percentage damage caused to weed species, ECHCG
Summary of the method: as §1

[6] = tested on: Ipomea hederaceae (IPOHE); assay: as above; settings: Ipomoea hederacea, 312 h; pre-emergence, rate 1,000 g/ha, evaluated after 13 days (100=total damage to plant; 0=no damage); read-out: Percentage damage caused to weed species, IPOHE
Summary of the method: as §1

[7] = tested on: Amaranthus retoflexus (AMARE); assay: Post-emergence biological efficacy, glasshouse pot test; settings: Amaranthus retroflexus, 312 h; Rate 1,000 g/ha; post-emergence spray; evaluated after 13 days (100=total damage to plant; 0=no damage to plant); read-out: Percentage damage caused to weed species, post-emergence, AMARE
Summary of the method: (§2)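 Pot-grown weeds were sprayed 8 days after sowing with test compound in acetone/water (50:50) with 0.5% Tween 20 at 1000 or 250 g/ha. Glasshouse at 24/16° C day/night, 14 h light, 65% humidity. Damage scored 0-100 (100 = total damage) after 13 days.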

[8] = tested on: Solanum nigrum (SOLNI); assay: as above; settings: 312 h, Rate 1,000 g/ha, post-emergence spray, evaluated after 13 days (100=total damage to plant; 0=no damage to plant), read-out: Percentage damage caused to weed species, post-emergence, SOLNI
Summary of the method: as §2

[9] = tested on: Alopecurus myosuroides (ALOMY); assay: as above; settings: 312 h, Rate 1,000 g/ha, post-emergence spray, evaluated after 13 days (100=total damage to plant; 0=no damage to plant), read-out: Percentage damage caused to weed species, post-emergence, ALOMY
Summary of the method: as §2

[10] = tested on: Setaria faberi (SETFA); assay: as above; settings: 312 h, Rate 1,000 g/ha, post-emergence spray, evaluated after 13 days (100=total damage to plant; 0=no damage to plant), read-out: Percentage damage caused to weed species, post-emergence, SETFA
Summary of the method: as §2

[11] = tested on: Echinochloa crus-galli (ECHCG); assay: as above; settings: 312 h, Rate 1,000 g/ha, post-emergence spray, evaluated after 13 days (100=total damage to plant; 0=no damage to plant), read-out: Percentage damage caused to weed species, post-emergence, ECHCG
Summary of the method: as §2

[12] = tested on: Ipomea hederaceae (IPOHE); assay: as above; settings: Ipomoea hederacea, 312 h; Rate 1,000 g/ha; post-emergence spray; evaluated after 13 days (100=total damage to plant; 0=no damage to plant); read-out: Percentage damage caused to weed species, post-emergence, IPOHE
Summary of the method: as §2

Row | SMILES | pest or weed control at 1000 g/ha [1] | pest or weed control at 1000 g/ha [2] | pest or weed control at 1000 g/ha [3] | pest or weed control at 1000 g/ha [4] | pest or weed control at 1000 g/ha [5] | pest or weed control at 1000 g/ha [6] | pest or weed control at 1000 g/ha [7] | pest or weed control at 1000 g/ha [8] | pest or weed control at 1000 g/ha [9] | pest or weed control at 1000 g/ha [10] | pest or weed control at 1000 g/ha [11] | pest or weed control at 1000 g/ha [12]
1 | C=CCN(Cc1cccs1)c1nc(C2CC2)nc(C(=O)OC)c1Cl [Compound 151-140, 5-Chloro-2-cyclopropyl-6-methoxycarbonyl-4-(N-prop-2-en-1-yl-N-thiophen-2-ylmethyl-amino)-pyrimidine] | 100% | 70% | 0% | 10% | 0% | 20% | 60% | 50% | 10% | 50% | 10% | 70%
2 | C=CCN(Cc1ccc(Cl)s1)c1nc(C2CC2)nc(C(=O)OC)c1Cl [Compound 151-141, 5-Chloro-4-[N-(5-chlorothiophen-2-ylmethyl)-N-prop-2-en-1-yl-amino]-2-cyclopropyl-6-methoxycarbonyl-pyrimidine] | 50% | 0% | 10% | 0% | 0% | 40% | 40% | 40% | 10% | 60% | 10% | 70%
3 | COC(=O)c1nc(C2CC2)nc(N(CC=C(C)C)Cc2ccccc2C(F)(F)F)c1Cl [Compound 152-75, 5-Chloro-2-cyclopropyl-6-methoxycarbonyl-4-[N-(3-methylbut-2-en-1-yl)-N-(2-trifluoromethyl-phenylmethyl)-amino]pyrimidine] | 80% | 20% | 20% | 40% | 10% | 80% | 50% | 60% | 10% | 10% | 0% | 60%
4 | C=CCCN(Cc1ccccc1)c1nc(C2CC2)nc(C(=O)OC)c1Cl [Compound 154-60, 4-(N-But-3-enyl-N-phenylmethyl-amino)-5-chloro-2-cyclopropyl-6-methoxycarbonyl-pyrimidine] | 40% | 0% | 0% | 0% | 0% | 0% | 60% | 50% | 20% | 30% | 20% | 80%
5 | COC(=O)c1nc(C2CC2)nc(N(Cc2ccccc2)Cc2ccccc2)c1Cl [Compound 155-60, 5-Chloro-2-cyclopropyl-4-dibenzylamino-6-methoxycarbonyl-pyrimidine] | 30% | 0% | 0% | 0% | 0% | 40% | 70% | 80% | 10% | 40% | 10% | 80%
6 | COC(=O)c1nc(C2CC2)nc(N(Cc2ccccc2)CC(O)c2ccccc2)c1Cl (stereo not drawn) [Compound 155-257, 5-Chloro-2-cyclopropyl-4-[N-(2-hydroxy-2-phenylethyl)-N-phenylmethyl-amino]-6-methoxycarbonyl-pyrimidine] | 30% | 10% | 10% | 20% | 10% | 30% | 90% | 80% | 20% | 50% | 0% | 50%
7 | COC(=O)c1nc(C2CC2)nc(N(CCO)Cc2cccnc2)c1Cl [Compound 157-156, 5-Chloro-2-cyclopropyl-4-(N-2-hydroxyethyl-N-pyrid-3-ylmethyl--amino)-6-methoxy-carbonylpyrimidine] | 40% | 20% | 0% | 0% | 0% | 40% | 40% | 40% | 0% | 0% | 0% | 40%
8 | COC(=O)c1nc(C2CC2)nc(N(CCO)Cc2ccc(Cl)nc2)c1Cl [Compound 157-157, 5-Chloro-4-[N-(6-chloropyrid-3-ylmethyl)-N-2-hydroxyethyl-amino]-2-cyclopropyl-6-methoxycarbonyl-pyrimidine] | 100% | 100% | 10% | 30% | 20% | 40% | 50% | 30% | 0% | 0% | 0% | 50%
9 | COCCN(C/C=C/c1ccco1)c1nc(C2CC2)nc(C(=O)OC)c1Cl [Compound 160-256, 5-Chloro-2-cyclopropyl-4-[N-(3-furan-2-yl-prop-2-enyl)-N-2-methoxyethyl-amino]-6-methoxycarbonyl-pyrimidine] | 20% | 10% | 10% | 0% | 0% | 10% | 90% | 60% | 0% | 40% | 0% | 50%
10 | COC(=O)c1nc(C2CC2)nc(N(CCC#N)Cc2ccccc2)c1Cl [Compound 161-60, 5-Chloro-4-[N-(2-cyanoethyl)-N-phenylmethyl-amino]-2-cyclopropyl-6-methoxycarbonyl-pyrimidine] | 0% | 0% | 0% | 0% | 0% | 0% | 90% | 80% | 20% | 50% | 50% | 70%
